Test results from ChEMBL document CHEMBL4257082, “Nhe3-binding compounds and methods for inhibiting phosphate transport” (2016).
Calls of active or inactive are those of the source. The calls are words filed in the database; no cut-off is given here.

Key:
Rattus norvegicus [1] = assay: In vivo inhibition of NHE3 in Sprague-Dawley rat assessed as inhibition of sodium absorption from intestinal lumen by measuring urinary sodium concentration at 3 mg/kg, po via gavage measured after 16 hrs relative to control; assay type: functional; set-up: scale not given: the % may be the effect or the level left
Rattus norvegicus [2] = assay: In vivo inhibition of NHE3 in Sprague-Dawley rat assessed as inhibition of sodium absorption from intestinal lumen by measuring urinary sodium concentration at 1 mg/kg, po via gavage measured after 16 hrs relative to control; assay type: functional; set-up: scale not given: the % may be the effect or the level left
Rattus norvegicus [3] = assay: In vivo inhibition of NHE3 in Sprague-Dawley rat assessed as inhibition of sodium absorption from intestinal lumen by measuring urinary sodium concentration at 10 mg/kg, po via gavage measured after 16 hrs relative to control; assay type: functional; set-up: scale not given: the % may be the effect or the level left
[4] = biological target: T1, Sodium/hydrogen exchanger 2 (Rattus norvegicus, UniProt P48763); assay: Inhibition of rat NHE2
T1 sequence (P48763 whole entry): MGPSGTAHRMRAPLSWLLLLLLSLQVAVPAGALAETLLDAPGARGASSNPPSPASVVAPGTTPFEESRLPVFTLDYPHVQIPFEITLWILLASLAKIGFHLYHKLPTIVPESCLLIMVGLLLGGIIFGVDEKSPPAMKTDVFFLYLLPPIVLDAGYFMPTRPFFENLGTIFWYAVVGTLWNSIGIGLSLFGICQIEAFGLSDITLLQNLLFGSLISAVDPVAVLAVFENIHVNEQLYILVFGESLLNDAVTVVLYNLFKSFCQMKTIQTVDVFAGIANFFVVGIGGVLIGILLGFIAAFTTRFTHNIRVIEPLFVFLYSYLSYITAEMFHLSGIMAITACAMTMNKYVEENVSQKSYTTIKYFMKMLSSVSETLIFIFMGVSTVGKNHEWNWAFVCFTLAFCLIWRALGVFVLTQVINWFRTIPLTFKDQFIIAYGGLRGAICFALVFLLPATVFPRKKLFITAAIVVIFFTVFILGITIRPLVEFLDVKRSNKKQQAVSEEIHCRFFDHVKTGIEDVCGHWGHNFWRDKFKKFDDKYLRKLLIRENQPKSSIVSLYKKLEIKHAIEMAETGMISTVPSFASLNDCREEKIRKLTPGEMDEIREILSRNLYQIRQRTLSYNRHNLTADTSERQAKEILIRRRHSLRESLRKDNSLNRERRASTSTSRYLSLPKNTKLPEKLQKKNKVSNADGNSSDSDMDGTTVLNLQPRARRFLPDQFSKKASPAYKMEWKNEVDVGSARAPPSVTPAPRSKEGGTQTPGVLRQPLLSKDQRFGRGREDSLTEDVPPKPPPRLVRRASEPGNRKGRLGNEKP

[5] = biological target: Sodium/hydrogen exchanger 3 (Rattus norvegicus, UniProt P26433); assay: Inhibition of rat NHE3
[6] = biological target: Sodium/hydrogen exchanger 1 (Rattus norvegicus, UniProt P26431); assay: Inhibition of rat NHE1
Homo sapiens = species: Homo sapiens; assay: Selectivity ratio of IC50 for NHE3 (unknown origin) to IC50 for NHE1 (unknown origin)
Rattus norvegicus [7] = assay: In vivo inhibition of NHE3 in rat assessed as inhibition of 33Pi uptake at 10 mg/kg, po measured up to 120 mins; assay type: functional, organism-based
Rattus norvegicus [8] = assay: Decrease in calcium urinary excretion in dietary salt-induced partial renal ablation Sprague-Dawley rat model of chronic kidney disease at 0.1 to 3 mg/kg/day added to normal chow pellets; assay type: functional, organism-based
Rattus norvegicus [9] = assay: Decrease in phosphorus urinary excretion in dietary salt-induced partial renal ablation Sprague-Dawley rat model of chronic kidney disease at 0.1 to 3 mg/kg/day added to normal chow pellets; assay type: functional, organism-based
[10] = biological target: T2, Sodium/hydrogen exchanger 5 (Homo sapiens, UniProt Q14940); assay: Inhibition of NHE5 (unknown origin)
T2 sequence (Q14940 whole entry): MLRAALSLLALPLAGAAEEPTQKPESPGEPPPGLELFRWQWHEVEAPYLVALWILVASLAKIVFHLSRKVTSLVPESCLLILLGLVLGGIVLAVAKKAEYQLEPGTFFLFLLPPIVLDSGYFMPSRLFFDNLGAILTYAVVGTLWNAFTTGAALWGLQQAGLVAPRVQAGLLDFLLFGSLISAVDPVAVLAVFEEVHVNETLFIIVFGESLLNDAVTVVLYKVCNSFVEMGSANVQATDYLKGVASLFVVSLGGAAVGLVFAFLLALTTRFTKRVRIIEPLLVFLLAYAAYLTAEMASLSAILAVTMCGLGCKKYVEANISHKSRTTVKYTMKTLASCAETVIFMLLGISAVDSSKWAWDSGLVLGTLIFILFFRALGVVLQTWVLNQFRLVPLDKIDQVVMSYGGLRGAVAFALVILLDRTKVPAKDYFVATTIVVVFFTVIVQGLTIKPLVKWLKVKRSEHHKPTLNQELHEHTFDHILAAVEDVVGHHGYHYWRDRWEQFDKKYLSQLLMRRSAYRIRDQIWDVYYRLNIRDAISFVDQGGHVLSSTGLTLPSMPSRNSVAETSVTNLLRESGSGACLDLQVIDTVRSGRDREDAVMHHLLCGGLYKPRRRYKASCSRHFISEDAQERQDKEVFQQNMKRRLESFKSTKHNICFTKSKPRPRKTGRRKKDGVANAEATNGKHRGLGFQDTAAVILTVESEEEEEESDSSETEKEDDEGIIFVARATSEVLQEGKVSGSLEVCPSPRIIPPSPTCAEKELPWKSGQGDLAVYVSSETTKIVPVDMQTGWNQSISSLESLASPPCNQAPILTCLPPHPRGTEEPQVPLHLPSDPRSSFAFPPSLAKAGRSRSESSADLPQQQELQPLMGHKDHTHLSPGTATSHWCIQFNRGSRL

[11] = biological target: T3, Sodium/hydrogen exchanger 2 (Oryctolagus cuniculus, UniProt P50482); assay: Inhibition of rabbit NHE2
T3 sequence (P50482 whole entry): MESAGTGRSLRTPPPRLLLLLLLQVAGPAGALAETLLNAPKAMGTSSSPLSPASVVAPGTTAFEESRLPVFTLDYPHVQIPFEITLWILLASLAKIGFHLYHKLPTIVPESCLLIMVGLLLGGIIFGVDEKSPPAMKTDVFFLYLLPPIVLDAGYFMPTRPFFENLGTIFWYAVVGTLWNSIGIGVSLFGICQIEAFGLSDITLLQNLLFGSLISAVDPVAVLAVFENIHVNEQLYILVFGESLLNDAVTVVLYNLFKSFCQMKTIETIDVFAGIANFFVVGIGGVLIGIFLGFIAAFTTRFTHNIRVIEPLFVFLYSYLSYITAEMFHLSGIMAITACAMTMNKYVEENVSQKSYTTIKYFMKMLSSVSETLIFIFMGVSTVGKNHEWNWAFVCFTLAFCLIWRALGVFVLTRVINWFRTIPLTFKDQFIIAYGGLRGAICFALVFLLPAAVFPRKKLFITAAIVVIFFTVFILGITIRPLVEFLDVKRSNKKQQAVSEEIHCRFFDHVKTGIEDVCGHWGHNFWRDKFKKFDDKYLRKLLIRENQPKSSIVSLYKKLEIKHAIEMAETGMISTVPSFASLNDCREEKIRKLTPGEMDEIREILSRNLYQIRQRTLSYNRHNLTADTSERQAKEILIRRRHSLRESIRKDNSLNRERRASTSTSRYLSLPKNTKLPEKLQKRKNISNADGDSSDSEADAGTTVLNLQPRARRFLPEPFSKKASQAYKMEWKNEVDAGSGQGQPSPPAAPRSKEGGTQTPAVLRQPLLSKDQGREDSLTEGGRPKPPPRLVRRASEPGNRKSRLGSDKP

[12] = biological target: Sodium/hydrogen exchanger 1 (Oryctolagus cuniculus, UniProt P23791); assay: Inhibition of rabbit NHE1
Chain of Sodium/hydrogen exchanger 1 (Oryctolagus cuniculus, UniProt P23791) (P23791 whole entry): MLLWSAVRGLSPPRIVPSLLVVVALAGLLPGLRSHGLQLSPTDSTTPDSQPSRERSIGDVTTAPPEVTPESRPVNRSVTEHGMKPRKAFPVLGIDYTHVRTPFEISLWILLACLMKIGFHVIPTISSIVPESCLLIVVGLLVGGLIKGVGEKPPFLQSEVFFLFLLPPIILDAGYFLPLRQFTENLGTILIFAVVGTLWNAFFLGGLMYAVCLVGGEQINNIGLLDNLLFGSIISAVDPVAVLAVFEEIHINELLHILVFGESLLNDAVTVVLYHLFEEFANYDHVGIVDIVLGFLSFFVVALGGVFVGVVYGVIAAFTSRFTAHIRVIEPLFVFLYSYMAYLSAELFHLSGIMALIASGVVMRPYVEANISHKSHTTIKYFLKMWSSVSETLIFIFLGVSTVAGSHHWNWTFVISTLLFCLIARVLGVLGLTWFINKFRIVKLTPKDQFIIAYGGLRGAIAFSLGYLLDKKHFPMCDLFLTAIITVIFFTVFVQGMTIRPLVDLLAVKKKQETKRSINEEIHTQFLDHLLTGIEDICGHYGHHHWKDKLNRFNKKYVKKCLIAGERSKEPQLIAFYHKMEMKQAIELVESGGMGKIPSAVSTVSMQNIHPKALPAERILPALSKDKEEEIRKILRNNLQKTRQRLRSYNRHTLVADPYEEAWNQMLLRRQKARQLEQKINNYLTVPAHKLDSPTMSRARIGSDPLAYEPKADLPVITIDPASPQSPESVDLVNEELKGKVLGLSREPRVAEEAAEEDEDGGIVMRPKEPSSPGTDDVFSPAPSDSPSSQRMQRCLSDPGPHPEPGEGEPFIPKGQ

Chain of Sodium/hydrogen exchanger 3 (P26433 whole entry): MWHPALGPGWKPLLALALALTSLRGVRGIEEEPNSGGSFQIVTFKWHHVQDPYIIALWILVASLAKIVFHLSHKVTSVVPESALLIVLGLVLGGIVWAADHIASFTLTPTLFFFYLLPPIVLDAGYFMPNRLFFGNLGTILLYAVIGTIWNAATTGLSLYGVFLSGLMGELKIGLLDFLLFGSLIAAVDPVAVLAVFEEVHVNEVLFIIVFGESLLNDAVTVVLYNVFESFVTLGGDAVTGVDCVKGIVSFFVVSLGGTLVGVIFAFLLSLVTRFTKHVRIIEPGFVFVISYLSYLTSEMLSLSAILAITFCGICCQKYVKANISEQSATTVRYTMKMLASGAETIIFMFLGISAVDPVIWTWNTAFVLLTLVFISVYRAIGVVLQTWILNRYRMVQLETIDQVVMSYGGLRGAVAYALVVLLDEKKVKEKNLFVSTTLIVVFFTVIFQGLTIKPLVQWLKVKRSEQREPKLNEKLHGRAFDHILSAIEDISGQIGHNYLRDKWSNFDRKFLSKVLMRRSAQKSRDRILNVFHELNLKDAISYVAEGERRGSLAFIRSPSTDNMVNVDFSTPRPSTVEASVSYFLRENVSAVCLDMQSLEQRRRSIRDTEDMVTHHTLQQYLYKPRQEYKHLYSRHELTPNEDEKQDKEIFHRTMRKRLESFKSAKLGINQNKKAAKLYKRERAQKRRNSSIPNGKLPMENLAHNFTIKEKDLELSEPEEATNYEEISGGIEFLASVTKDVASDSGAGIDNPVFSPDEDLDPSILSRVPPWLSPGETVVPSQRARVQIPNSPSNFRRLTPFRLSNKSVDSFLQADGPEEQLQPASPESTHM
Chain of Sodium/hydrogen exchanger 1 (Rattus norvegicus, UniProt P26431) (P26431 whole entry): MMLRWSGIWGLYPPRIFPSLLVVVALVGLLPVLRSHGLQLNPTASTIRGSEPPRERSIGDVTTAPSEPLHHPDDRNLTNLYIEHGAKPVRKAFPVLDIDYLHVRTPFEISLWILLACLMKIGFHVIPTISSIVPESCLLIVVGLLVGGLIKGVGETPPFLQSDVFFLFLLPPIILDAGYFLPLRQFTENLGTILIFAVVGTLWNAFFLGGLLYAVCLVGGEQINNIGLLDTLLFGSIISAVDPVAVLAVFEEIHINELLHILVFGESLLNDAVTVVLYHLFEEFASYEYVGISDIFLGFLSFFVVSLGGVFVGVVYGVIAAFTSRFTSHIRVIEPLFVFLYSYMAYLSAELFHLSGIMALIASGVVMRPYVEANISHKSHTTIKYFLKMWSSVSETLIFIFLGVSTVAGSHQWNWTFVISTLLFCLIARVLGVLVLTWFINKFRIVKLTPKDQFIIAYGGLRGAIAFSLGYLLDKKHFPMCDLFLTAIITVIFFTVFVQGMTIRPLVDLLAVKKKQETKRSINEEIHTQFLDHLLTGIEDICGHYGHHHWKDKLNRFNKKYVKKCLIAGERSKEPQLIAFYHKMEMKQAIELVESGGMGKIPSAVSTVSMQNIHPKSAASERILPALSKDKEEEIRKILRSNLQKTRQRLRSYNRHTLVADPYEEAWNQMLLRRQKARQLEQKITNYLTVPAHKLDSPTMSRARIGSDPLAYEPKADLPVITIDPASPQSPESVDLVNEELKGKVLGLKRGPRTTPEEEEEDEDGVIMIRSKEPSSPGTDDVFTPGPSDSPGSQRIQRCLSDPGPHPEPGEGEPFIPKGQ

`CN1Cc2c(Cl)cc(Cl)cc2[C@H](c2cccc(S(=O)(=O)NCCOCCNC(=O)CCC(CCC(=O)NCCOCCOCCNS(=O)(=O)c3cccc([C@@H]4CN(C)Cc5c(Cl)cc(Cl)cc54)c3)(CCC(=O)NCCOCCOCCNS(=O)(=O)c3cccc([C@@H]4CN(C)Cc5c(Cl)cc(Cl)cc54)c3)NC(=O)[C@H]3CCCC[C@@H]3C(=O)O)c2)C1` showed an Activity (Rattus norvegicus [1]) of 63%.
In the case of `CN1Cc2c(Cl)cc(Cl)cc2[C@H](c2cccc(S(=O)(=O)NCCOCCOCCNC(=O)CCC(CCC(=O)NCCOCCOCCNS(=O)(=O)c3cccc([C@@H]4CN(C)Cc5c(Cl)cc(Cl)cc54)c3)(CC(=O)NCCOCCOCCNS(=O)(=O)c3cccc([C@@H]4CN(C)Cc5c(Cl)cc(Cl)cc54)c3)NC(=O)CCC(=O)O)c2)C1`, the Activity (Rattus norvegicus [2]) is reported as 49% and the Activity (Rattus norvegicus [1]) is reported as 12%.
`CN1Cc2c(Cl)cc(Cl)cc2[C@@H](c2cccc(S(=O)(=O)NCCOCCOCCNC(=O)N(C)CCCN(CCCN(C)C(=O)NCCOCCOCCNS(=O)(=O)c3cccc([C@@H]4CN(C)Cc5c(Cl)cc(Cl)cc54)c3)C(=O)NCCOCCOCCNS(=O)(=O)c3cccc([C@@H]4CN(C)Cc5c(Cl)cc(Cl)cc54)c3)c2)C1` showed an Activity (Rattus norvegicus [2]) of 88%, an Activity (Rattus norvegicus [1]) of 55% and an Activity (Rattus norvegicus [3]) of 28%.
With `CN1Cc2c(Cl)cc(Cl)cc2[C@H](c2ccc(S(=O)(=O)NCCOCCOCCNCCCC(CCC(=O)NCCOCCOCCNS(=O)(=O)c3cccc([C@@H]4CN(C)Cc5c(Cl)cc(Cl)cc54)c3)(CCC(=O)NCCOCCOCCNS(=O)(=O)c3cccc([C@@H]4CN(C)Cc5c(Cl)cc(Cl)cc54)c3)NC(=O)N3CCN(CCOCCO)CC3)cc2)C1` the Activity (Rattus norvegicus [1]) was 31%.
Molecule `CC(=O)C(CCNC(=O)NCCOCCOCCNS(=O)(=O)c1cccc([C@@H]2CN(C)Cc3c(Cl)cc(Cl)cc32)c1)(CCNC(=O)NCCOCCOCCNS(=O)(=O)c1cccc([C@@H]2CN(C)Cc3c(Cl)cc(Cl)cc32)c1)CCNC(=O)NCCOCCOCCNS(=O)(=O)c1cccc([C@@H]2CN(C)Cc3c(Cl)cc(Cl)cc32)c1` has an Activity (Rattus norvegicus [1]) of 42%.
`CN(C)c1nc(N)c(C(=O)NC(=N)N)nc1Cl` showed an IC50 [4] of 250 nM, an IC50 [5] of 14000 nM and an IC50 [6] of 23 nM.
In the case of `C/C(=C\c1cccc(/C=C(\C)C(=O)NC(=N)N)c1)C(=O)N=C(N)N`, the Ratio IC50 (Homo sapiens) is reported as > 500.
`CN1Cc2c(Cl)cc(Cl)cc2[C@@H](c2cccc(S(=O)(=O)NCCOCCOCCNC(=O)NCCCCNC(=O)NCCOCCOCCNS(=O)(=O)c3cccc([C@@H]4CN(C)Cc5c(Cl)cc(Cl)cc54)c3)c2)C1` was tested, and the inhibition (Rattus norvegicus [7]) was “inactive”.
In the case of `CN1Cc2c(Cl)cc(Cl)cc2[C@H](c2cccc(S(=O)(=O)NCCOCCOCCNC(=O)NCCCCNC(=O)NCCOCCOCCNS(=O)(=O)c3cccc([C@@H]4CN(C)Cc5c(Cl)cc(Cl)cc54)c3)c2)C1`, the Activity (Rattus norvegicus [8]) is reported as “Active” and the Activity (Rattus norvegicus [9]) is reported as “Active”.
`CCN(c1nc(N)c(C(=O)NC(=N)N)nc1Cl)C(C)C` [5-(N-ETHYL-N-ISOPROPYL)AMILORIDE] was tested, and the IC50 [10] was 420 nM, the IC50 [11] was 500 nM and the IC50 [5] was 2400 nM. It also gave an IC50 [12] of 20 nM and an IC50 [6] of 10 nM.
`N=C(N)NC(=O)c1nc(Cl)c(N)nc1N` [AMILORIDE] was tested, and the IC50 [10] was 21000 nM, the IC50 [11] was 1000 nM and the IC50 [5] was > 100000 nM. The IC50 [6] was 1000 to 1600 nM.
